The values below come from patent publication US20250066864A1, “METHODS FOR IDENTIFYING ADAR1 INHIBITORS, AND COMPOSITIONS AND METHODS OF USE IN TREATING CANCER” (The Wistar Institute of Anatomy and Biology, priority 2021, published 2025).

The structures appear in SMILES notation. Like-named read-outs stand apart in the source and are kept apart here.

One assay addresses T1, ADAR1p110 (Homo sapiens, UniProt P55265).
T1 construct: HAT (N); FLAG (alternative preparation, not on the same molecule as HAT) (N); made in house; host or cells: Sf9 insect cells, baculovirus
T1 sequence (P55265 1-931 isoform P55265-5): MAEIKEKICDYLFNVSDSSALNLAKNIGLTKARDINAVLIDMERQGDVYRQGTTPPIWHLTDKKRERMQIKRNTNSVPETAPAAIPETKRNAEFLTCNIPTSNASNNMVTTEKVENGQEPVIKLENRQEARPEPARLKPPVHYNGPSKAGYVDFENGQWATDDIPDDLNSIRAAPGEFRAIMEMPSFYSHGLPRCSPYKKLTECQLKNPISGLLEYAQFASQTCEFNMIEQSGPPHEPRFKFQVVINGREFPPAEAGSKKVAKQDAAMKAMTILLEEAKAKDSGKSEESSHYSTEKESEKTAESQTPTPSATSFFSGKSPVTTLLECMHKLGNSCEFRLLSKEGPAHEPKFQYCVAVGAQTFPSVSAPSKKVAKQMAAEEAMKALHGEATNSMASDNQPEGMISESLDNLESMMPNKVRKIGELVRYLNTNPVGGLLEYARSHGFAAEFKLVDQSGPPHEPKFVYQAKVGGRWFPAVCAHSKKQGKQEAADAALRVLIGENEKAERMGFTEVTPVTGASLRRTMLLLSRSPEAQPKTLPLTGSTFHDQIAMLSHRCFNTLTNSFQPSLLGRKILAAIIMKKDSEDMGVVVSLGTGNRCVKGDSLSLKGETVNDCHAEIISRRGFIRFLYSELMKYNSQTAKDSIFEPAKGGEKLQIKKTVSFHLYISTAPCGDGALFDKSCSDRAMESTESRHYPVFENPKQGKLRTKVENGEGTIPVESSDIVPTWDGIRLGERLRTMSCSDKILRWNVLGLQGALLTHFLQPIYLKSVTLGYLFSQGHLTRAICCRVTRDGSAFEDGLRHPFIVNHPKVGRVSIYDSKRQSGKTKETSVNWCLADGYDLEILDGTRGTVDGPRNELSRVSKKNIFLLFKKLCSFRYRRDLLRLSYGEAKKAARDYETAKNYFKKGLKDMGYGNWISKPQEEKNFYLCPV
Nature of the assay: in vitro editing assay with recombinant ADAR1p110 and dsRNA or DNA:RNA substrates. The assay is classed as biochemical. Here is the method:
FIG. 26A-FIG. 26B show determination of IC50 by in vitro editing assay. In vitro editing assay using purified ADAR1p110 protein and two different substrates, matched (left) and mismatched (right) dsRNAs, was conducted in the presence of varying concentrations of compound #1 (FIG. 26A) or #13 (FIG. 26B) in order to estimate IC50 values for these compounds. In vitro editing was carried out using HAT-ADAR1p110 or HAT-ADAR2 recombinant protein (10 nM) and two different dsRNA substrates carrying a part of the CDK13 gene sequence (5 nM) at 37° C. for 2 hrs as described previously (12). Compounds were dissolved in 100% DMSO. The in vitro assay contained DMSO at final concentration of 16%.
The in vitro editing reaction mixture, containing 5 nM of telomere RNA:RNA duplex substrates and 75 nM of HAT-ADAR1p110-WT, FLAG-ADAR1p110-WT, or HA-ADAR1p110-EAA protein, was incubated at 37° C. for 2 h in in vitro editing buffer I (20 mM HEPES-KOH pH 7.5, 100 mM NaCl, 0.01% NP-40, 5% glycerol, 1 mM DTT). For editing of RNA:DNA hybrid substrates, in vitro editing buffer II (20 mM HEPES-KOH pH 7.5, 20 mM NaCl, 0.01% NP-40, 5% glycerol, 1 mM DTT) was used. Edited RNA or DNA strands were purified using Dynabeads MyOne Streptavidin C1 (Thermo Fisher Scientific). To remove opposite RNA or DNA strands, rNase H (NEB) or TURBO dNase (Thermo Fisher Scientific) was used, respectively. For sequencing of edited substrates, reverse transcription-PCR was carried out for RNA strands, while PCR was carried out for DNA strands. RT reactions were carried out using SuperScript III Reverse Transcriptase (Thermo Fisher Scientific), and PCR reactions were performed using Platinum Taq DNA polymerase (Thermo Fisher Scientific). PCR products were sequenced using a specific sequencing primer, and the ratio of A and G peaks in the chromatograms were analyzed by CodonCode Aligner (CodonCode Corporation).
The 54 compounds identified in the high-throughput screen were further tested in the in vitro editing assay described in Examples 1 and 2. The in vitro editing reaction mixture, containing 5 nM of telomere RNA:RNA duplex substrates and 75 nM of HAT-ADAR1p110-WT, FLAG-ADAR1p110-WT, or HA-ADAR1p110-EAA protein, was incubated at 37° C. for 2 h in in vitro editing buffer I (20 mM HEPES-KOH pH 7.5, 100 mM NaCl, 0.01% NP-40, 5% glycerol, 1 mM DTT) with 10 microM test compound. For editing of RNA:DNA hybrid substrates, in vitro editing buffer II (20 mM HEPES-KOH pH 7.5, 20 mM NaCl, 0.01% NP-40, 5% glycerol, 1 mM DTT) was used. Edited RNA or DNA strands were purified using Dynabeads MyOne Streptavidin C1 (Thermo Fisher Scientific). To remove opposite RNA or DNA strands, Rnase H (NEB) or TuRBO Dnase (Thermo Fisher Scientific) was used, respectively. For sequencing of edited substrates, reverse transcription-PCR was carried out for RNA strands, while PCR was carried out for DNA strands. RT reactions were carried out using SuperScript III Reverse Transcriptase (Thermo Fisher Scientific), and PCR reactions were performed using Platinum Taq DNA polymerase (Thermo Fisher Scientific). PCR products were sequenced using a specific sequencing primer, and the ratio of A and G peaks in the chromatograms were analyzed by CodonCode Aligner (CodonCode Corporation).

For the next assay, the target named is T2, ADAR1p110-WT (Homo sapiens, UniProt P55265).
T2 sequence (P55265 1-931 isoform P55265-5): T1 sequence (P55265 1-931 isoform P55265-5)
Nature of the assay: surface plasmon resonance (Biacore T200), ADAR1p110-WT. The settings on record: SPR. It is filed as binding. An excerpt: We synthesized 2 additional analogs of Compound #13 for preliminary structure activity relationships (SAR), namely, #13-Analog 1 and #13-Analog 2 (Table 3). Compound #13-Analog 1 lacks the 4-cyano moiety and #13-Analog 2 shifts the cyano to the 2-position of the phenyl ring. […] We hypothesized that the cyano-phenyl moiety will coordinate with the zinc atom in the active site when bound to ADAR1. We evaluated the ability of Compound #13 to bind to ADAR1 using surface plasmon resonance (SPR) on the Biacore T200. […] We modeled Compound #13 into the ADAR2 active site (56).
For orientation: SPR reads the build-up and loss of mass on a sensor chip optically.

By IC50 is commonly meant the concentration that inhibits the measured activity by half. In general, Kd refers to the equilibrium constant for the complex coming apart. With `N#Cc1ccc(NC(=O)c2sc3ccccc3c2Cl)cc1` [Compound #13, 3-chloro-N-(4-cyanophenyl)-1-benzothiophene-2-carboxamide], the IC50 on ADAR1p110 (DNA:RNA mismatched hybrid substrate, read-out: IC50 estimated by in vitro editing assay, DNA:mmRNA) is 30 to 100 µM; at ADAR1p110 (dsRNAs (matched, mismatched) and DNA:RNA hybrids, read-out: IC50 values for ADAR1p110), 7 to 40 µM; at ADAR1p110 (matched dsRNA substrate, read-out: IC50 estimated by in vitro editing assay, RNA:RNA), 3 µM; at ADAR1p110 (mismatched dsRNA substrate, adenosine position 2, read-out: IC50 estimated by in vitro editing assay, RNA:mmRNA, Position 2) it was 21 µM; on ADAR1p110 (mismatched dsRNA substrate, adenosine position 5, read-out: IC50 estimated by in vitro editing assay, RNA:mmRNA, Position 5), 8.2 µM; at ADAR1p110 (mismatched dsRNA substrate, adenosine position 6, read-out: IC50 estimated by in vitro editing assay, RNA:mmRNA, Position 6), 3.8 µM. For the same compound, the “inhibition of editing of A:U matched dsRNA” value at ADAR1p110 (matched dsRNA substrate, FIG. 25C, 10 microM test compound) is “preferentially inhibited matched adenosines”. For the same compound, the “binding to ADAR1p110 wildtype (qualitative)” value at ADAR1p110-WT is listed as “binds”. In addition, on ADAR1p110-WT (read-out: Kd, binding to ADAR1p110-WT), the Kd was roughly 26 µM.
